The source of these data is publication PMC4718592, “Identification of Novel HLA-A*24:02-Restricted Epitope Derived from a Homeobox Protein Expressed in Hematological Malignancies” (PLoS ONE, 2016).

Data set [1] has as its system HLA-A24. Description: Peptide binding assay on CIR-A24 cells. To be noted: 50 μg/mL peptide + 5 μg/mL β2-microglobulin, serum-free media, 24 hours, FITC anti-HLA-A24 staining, MFI with peptide / MFI without peptide, average of the two assays. Here is the method: (§1) We assessed the binding ability of candidate peptides to HLA-A24 as described previously. CIR-A24 cells were incubated with 50 μg/mL peptides and 5μg/ mL of β2-microglobulin in serum-free media for 24 hours. After washing with PBS, the expression of HLA-A24 was measured by staining the cells with FITC-conjugated anti-HLA-A24 antibody (Mitsubishi-Kagaku, Tokyo, Japan). We also checked the stability of candidate peptides bound to the HLA-A24 molecule. CIR-A24 cells were incubated with 50 μg/mL peptides and 5 μg/mL of β2-microglobulin in serum-free media for 24 hours, followed by addition of 50 μg/ mL of brefeldin A (Sigma-Aldrich) for 4 hours. The expression of HLA-A24 was detected by staining the cells with FITC-conjugated anti-HLA-A24 antibody (Mitsubishi). MFI (mean fluorescence intensity) ratio was calculated as follows; MFI of CIR-A24 pulsed with each candidate peptide / MFI of CIR-A24 without peptide.

The test system of data set [2] is HLA-A24. Description: Peptide stability assay on CIR-A24 cells (brefeldin A). It is filed as binding. To be noted: 50 μg/mL peptide + 5 μg/mL β2-microglobulin, 24 hours, then 50 μg/mL brefeldin A for 4 hours, FITC anti-HLA-A24 staining, MFI with peptide / MFI without peptide, average of the two assays. Here is the method: as §1
A further data set has as its system CIR-A24 cells. Description: 51Cr release cytotoxicity assay of PEPP2-specific CTLs against peptide-pulsed cells. It is filed as cell-based. The text has this: The target cells were mixed with effector cells.
Data set [3] relates to HLA-A*24:02 positive lymphocytes isolated from healthy donors. The data set is described as follows: Induction of PEPP2 peptide-specific CTLs from PBMCs of healthy donors. It is filed as cell-based, human. The settings on record: HLA-A*24:02 positive healthy donor lymphocytes stimulated with peptide-pulsed DC and PHA blasts; IFN-γ ELISpot. Here is the method: CTLs were generated by in vitro stimulation with peptide-pulsed autologous dendritic cells and phytohemagglutinin (PHA) blasts. Briefly, PBMNCs were isolated from whole blood of HLA-A*24:02-positive HD by Ficoll density gradient centrifugation. Dendritic cells (DC) were generated by isolating CD14^+ cells using a MACS separation system (Miltenyi Biotec, Bergisch Gladbach, Germany). The CD14^+ cells were cultured in AIM-V medium supplemented with 10% human serum, 100 ng/mL of IL-4 (R&D Systems) and 100 ng/mL of GM-CSF (R&D Systems) for 5 days, then 20 ng/mL of TNF-α (R&D Systems) was added to generate DC. PHA blasts were derived from CD14^- cells by culturing in AIM-V medium supplemented with 10% human serum, 100 units of IL-2 and 1μ g/mL of PHA for 2 days. The DC or PHA blasts were pulsed with 50μg/L of peptide at room temperature for 3 hours and then irradiated (mediXtec, Chiba, Japan). On day 0, CD14^- cells were stimulated with irradiated peptide-pulsed DC in AIM-V medium with 10% human serum supplemented with 10 ng/mL of IL-7 (R&D Systems), then 50 ng/mL of IL-2 was added every 2 to 3 days. The cells were stimulated weekly with irradiated peptide-pulsed autologous PHA blasts, then CD3^+CD8^+ cells were purified with immunomagnetic beads (Miltenyi Biotec).
IFN-γ secretion of CTLs in response to target cells was detected using ELISpot assay. Briefly, effector cells were incubated with target cells in plates coated with anti-IFNγ antibody (1-D1K; Mabtech Inc., Cincinnati, OH). After incubation for 20 hours, biotinylated antibody specific for IFN γ (7-B6-1; Mabtech) was added for 2 hours at room temperature and then streptavidin-alkaline phosphatase (Mabtech) was added for 1 hour. To develop spots, nitroblue tetrazolium and 5-bromo-4-chloro-3-indolyl phosphate (Biorad) were added and the color development was stopped by rinsing with distilled water. The resulting spots were counted using a CTL-ImmunoSpot® analyzer (Cellular Technology Ltd., Shaker Heights, OH)

The subject of the next data set is leukemia cells. The data set is described as follows: Viability of leukemia cells after drug treatment. To be noted: data not shown.
Another data set concerns PBMNCs from HD. Description: PEPP2 expression after demethylating agent, healthy donor PBMNCs. Format: cell-based, human. The settings on record: PBMCs from healthy donor, 200 nM for 72 hours.
Another data set deals with HL60 and PL21 cells. Description: PEPP2 expression after demethylating agent, leukemia cell lines (RT-PCR, quantitative PCR, immunohistochemistry). Format: cell-based.
The test system of data set [4] is PBMNCs from HLA-A*24:02-positive healthy donor. To be noted: PBMNCs pretreated for 72 hours, 51Cr release. On the procedure:
(§2) PL21 and HL60 cells and PBMNCs from HD were cultured in AIM-V medium (Life Technologies) supplemented with 10% human serum (Lonza, Walkersville, MD) in 6-well culture plates and 200 nM of 5-aza-2′-deoxycytidine (Sigma-Aldrich) was added every 24 hours for 72 hours.
(§3) The cytotoxic activity of the CTLs was measured using a standard ^51Cr release assay. Target cells were labeled with 50 μCi of ^51Cr (PerkinElmer Inc., Waltham, MA) for 60 min at 37°C. CIR-A24 cells were then incubated with 5 μg/mL of peptide for 1 hour. For the blocking assay, KMS21 cells were treated with mouse anti-HLA class I antibody (w6/32; eBioscience, San Diego, CA) or mouse IgG isotype antibody (eBioscience). The target cells were mixed with effector cells. After 4 hours, supernatants were transferred to LumaPlates (PerkinElmer) and allowed to air dry in a hood overnight. Plates were sealed and counted in MicroBeta® Trilux instrument (PerkinElmer). Percent specific lysis for ^51Cr release was calculated as [(experimental ^51Cr release—spontaneous ^51Cr release) / (maximum ^51Cr release—spontaneous ^51Cr release)] x 100.

Data set [5] has as its system PL21 cells. Description: 51Cr release cytotoxicity of PEPP2-specific CTLs against drug-pretreated PL21 cells. The settings on record: PL21 pretreated for 72 hours. Here is the method:
as §2, §3

Data set [6] has as its system PL21 cells. To be noted: flow cytometry. (A flow cytometer gives signals particle by particle.)

With QLQELERIF [PEPP2^145-153], the “Binding MFI ratio” value in the data set with HLA-A24 [1] turned out to be 0.767. Moreover, in the data set on HLA-A24 [2], the “Stability MFI ratio” value came out at 1.071.

Regarding RPQGAVGGL [PEPP2^120-128], the “Binding MFI ratio” value in the data set with HLA-A24 [1] is 0.746. The “Stability MFI ratio” value with HLA-A24 [2] worked out at 0.754.

As to QYSRPQGAV [PEPP2^117-125], in the data set with HLA-A24 [1], the “Binding MFI ratio” value is 0.882. In addition, in the data set on HLA-A24 [2], the “Stability MFI ratio” value worked out at 0.977.

With PFPPPSLPL [PEPP2^248-256], in the data set on HLA-A24 [1], the “Binding MFI ratio” value was 1.069. In addition, the “Stability MFI ratio” value in the data set with HLA-A24 [2] is on record as 0.926.

Take VHAFTPLQL [PEPP2^138-146]: the “Binding MFI ratio” value in the data set on HLA-A24 [1] was determined as 0.992. Also, in the data set with HLA-A24 [2], the “Stability MFI ratio” value came to 0.748.

Turning to MPPFPPPSL [PEPP2^246-254], the “Binding MFI ratio” value in the data set with HLA-A24 [1] is listed as 0.985. Further, the “Stability MFI ratio” value with HLA-A24 [2] is reported as 0.914.

Turning to GGAGVPGHL [PEPP2^81-89], the “Binding MFI ratio” value with HLA-A24 [1] amounted to 0.852. Also, the “Stability MFI ratio” value in the data set with HLA-A24 [2] came to 0.785.

In the case of EFGPFPFVI [PEPP2^271-279], in the data set with HLA-A24 [1], the “Binding MFI ratio” value turned out to be 1.153. Further, in the data set with CIR-A24 cells (4 hours, targets pulsed with 5 μg/mL peptide), the “Lysis of peptide-pulsed C1R-A24 cells by PEPP2-specific CTLs” value was “could lyse C1R-A24 cells only when the target cells were pulsed”. Further, the “Dose dependence of recognition by CTLs” value with CIR-A24 cells (CIR-A24 pulsed with various concentrations of peptide, E/T ratio of 30) is “peptide dose-dependent”. Moreover, in data set [3], the “Induction of PEPP2-specific CTL” value was “could induce PEPP2-specific CTL”. Further, in the data set on HLA-A24 [2], the “Stability MFI ratio” value is 1.201.

As for QYMTSLLSPA [PEPP2^9-18], the “Binding MFI ratio” value with HLA-A24 [1] came to 1.354. For the same molecule, in the data set on HLA-A24 [2], the “Stability MFI ratio” value stood at 0.865.

As to `Nc1ncn([C@H]2C[C@H](O)[C@@H](CO)O2)c(=O)n1` [5-aza-2′-deoxycytidine], the “Viability of leukemia cells after treatment with the drug” value in the data set with leukemia cells was “more than 90%”. Besides, the “PEPP2 gene and protein expression after treatment” value in the data set on PBMNCs from HD is “did not change”. Moreover, the “PEPP2 gene expression after treatment” value with HL60 and PL21 cells (HL60 and PL21, 200 nM for 72 hours, RT-PCR / quantitative PCR) was “significantly up-regulated”. Also, in the data set on HL60 and PL21 cells (treated vs untreated cells, 200 nM for 72 hours, immunohistochemistry), the “PEPP2 protein expression after treatment” value is “increased”. For the same molecule, the “Recognition of treated normal PBMNCs by PEPP2-specific CTLs” value in [4] is recorded as “didn’t recognize”. Moreover, the “Cytotoxicity of PEPP2-specific CTLs against treated cells compared with non-treated cells” value in the data set with PL21 cells [5] is recorded as “enhanced cytotoxicity”. For the same molecule, the “HLA-class I expression after treatment” value in the data set with PL21 cells [6] was “up-regulated”. Also, the “PD-L1 expression level after treatment” value with PL21 cells [6] (confirmed by quantitative PCR) was “slightly up-regulated”.

In the case of CSQYMTSSL [PEPP2^7-15], the “Binding MFI ratio” value in the data set on HLA-A24 [1] was determined as 1.103. Moreover, the “Stability MFI ratio” value in the data set with HLA-A24 [2] came to 1.041.

With QCSQYMTSL [PEPP2^6-14], in the data set on HLA-A24 [1], the “Binding MFI ratio” value turned out to be 0.724. Also, the “Stability MFI ratio” value in the data set with HLA-A24 [2] came to 0.614.

As for AFTPIQLQEL [PEPP2^140-149], the “Binding MFI ratio” value in the data set on HLA-A24 [1] amounted to 1.363. Further, the “Induction of PEPP2-specific CTL” value in [3] is on record as “could not induce PEPP2-specific CTL”. Further, in the data set with HLA-A24 [2], the “Stability MFI ratio” value was 0.851.

Consider LQDMNAMVL [PEPP2^25-33], for which the “Binding MFI ratio” value in the data set on HLA-A24 [1] worked out at 0.768. Further, the “Stability MFI ratio” value in the data set on HLA-A24 [2] stood at 0.761.

As for TYGPVFMCL [EBV, reference compound], in the data set on HLA-A24 [1], the “Binding MFI ratio” value came out at 1.204. The “Stability MFI ratio” value with HLA-A24 [2] is 1.320.

Turning to QGTAAGEKL [PEPP2^52-60], the “Binding MFI ratio” value in the data set on HLA-A24 [1] amounted to 0.820. Besides, in the data set with HLA-A24 [2], the “Stability MFI ratio” value was 0.938.

As for RALMARNML [PEPP2^194-202], the “Binding MFI ratio” value in the data set with HLA-A24 [1] came to 0.954. The “Stability MFI ratio” value with HLA-A24 [2] came out at 0.599.

FTPLQLQEL [PEPP2^141-149]: the “Binding MFI ratio” value in the data set with HLA-A24 [1] turned out to be 0.860. In the data set with HLA-A24 [2], the “Stability MFI ratio” value worked out at 0.687.

ERIFQREQF [PEPP2^150-158]: the “Binding MFI ratio” value with HLA-A24 [1] amounted to 0.747. Also, the “Stability MFI ratio” value in the data set on HLA-A24 [2] came to 0.690.

With SLPLPLMLL [PEPP2^253-261], the “Binding MFI ratio” value in the data set on HLA-A24 [1] is recorded as 1.277. Further, in data set [3], the “Induction of PEPP2-specific CTL” value is reported as “could not induce PEPP2-specific CTL”. Moreover, the “Stability MFI ratio” value with HLA-A24 [2] is on record as 1.103.

Consider “KWRRHQRAL [PEPP2^188-196, PEPP2-derived candidate peptide …]”, for which, in the data set on HLA-A24 [1], the “Binding MFI ratio” value worked out at 0.772. Moreover, in the data set on HLA-A24 [2], the “Stability MFI ratio” value worked out at 0.714.

In the case of LQLQELERI [PEPP2^144-152], the “Binding MFI ratio” value in the data set on HLA-A24 [1] was 0.695. Also, in the data set on HLA-A24 [2], the “Stability MFI ratio” value stood at 0.738.

As for DYFWDHSHS [PEPP2^231-239], in the data set on HLA-A24 [1], the “Binding MFI ratio” value is 0.889. For the same molecule, the “Stability MFI ratio” value with HLA-A24 [2] was determined as 0.869.

In the case of FVIVPSFTF [PEPP2^277-285], the “Binding MFI ratio” value in the data set with HLA-A24 [1] amounted to 1.181. Also, the “Stability MFI ratio” value with HLA-A24 [2] came to 0.928.

Consider DMNAMVSL [PEPP2^27-35], for which the “Binding MFI ratio” value with HLA-A24 [1] is listed as 0.936. The “Stability MFI ratio” value in the data set on HLA-A24 [2] is 0.831.
